Results taken from ChEMBL document CHEMBL3885861, “Open TG-GATES”.

Species: Rattus norvegicus
Experiment: Open TG-GATES - Regimen: Single
Format: toxicity, organism-based, Sprague-Dawley
Set-up: regimen Single, gender Male, age 6 weeks
Details: in vivo, po, route gavage; for KIDNEY_L / KIDNEY_R / KIDNEY_TOTAL: tissue Kidney; for ALP / ALT / BUN / CRE / DBIL / GLC / IP / K / Na / RALB / TBIL / TG / TP / gamma-GTP / PL: tissue Plasma; for LIVER: tissue Liver
[1] = 10 mg/kg, 3 h, tissue Blood, dose level Middle
[2] = 10 mg/kg, 3 h, dose level Middle
[3] = 10 mg/kg, 6 h, dose level Middle
[4] = 10 mg/kg, 6 h, tissue Blood, dose level Middle
[5] = 10 mg/kg, 9 h, dose level Middle
[6] = 10 mg/kg, 9 h, tissue Blood, dose level Middle
[7] = 10 mg/kg, 24 h, dose level Middle
[8] = 10 mg/kg, 24 h, tissue Blood, dose level Middle
[9] = 30 mg/kg, 3 h, tissue Blood, dose level High
[10] = 30 mg/kg, 6 h, tissue Blood, dose level High
[11] = 30 mg/kg, 9 h, tissue Blood, dose level High
[12] = 30 mg/kg, 24 h, dose level High
[13] = 30 mg/kg, 24 h, tissue Blood, dose level High

Structure (SMILES): CNCCC(Oc1ccc(C(F)(F)F)cc1)c1ccccc1.Cl (centres undefined) [FLUOXETINE HYDROCHLORIDE]
- Bas [1]: 0%
- Eos [1]: 1.2%
- Ht [1]: 41.6%
- Lym [1]: 68.4%
- MCHC [1]: 32.1%
- Ret [1]: 8.7%
- WBC [1]: 85.2 x10_2/uL
- KIDNEY_L [2]: 1 g
- KIDNEY_R [2]: 1 g
- KIDNEY_TOTAL [2]: 2 g
- ALP [2]: 1509 IU/L
- ALT [2]: 36.6 IU/L
- BUN [2]: 13.8 mg/dL
- CRE [2]: 0.4 mg/dL
- DBIL [2]: 0.014 mg/dL
- GLC [2]: 201.4 mg/dL
- IP [2]: 10.3 mg/dL
- K [2]: 5.2 meq/L
- Na [2]: 138.6 meq/L
- RALB [2]: 4.1 g/dL
- TBIL [2]: 0.042 mg/dL
- TG [2]: 128.6 mg/dL
- TP [2]: 5.9 g/dL
- gamma-GTP [2]: 0 IU/L
- TERMINAL_BW [3]: 215.2 g
- Bas [4]: 0%
- Eos [4]: 1%
- Ht [4]: 40.8%
- Lym [4]: 70%
- MCH [4]: 21.9 pg
- MCHC [4]: 32.6%
- Ret [4]: 8.2%
- WBC [4]: 96.4 x10_2/uL
- KIDNEY_L [3]: 0.9 g
- KIDNEY_R [3]: 1 g
- KIDNEY_TOTAL [3]: 1.9 g
- LIVER [3]: 10 g
- ALP [3]: 1142 IU/L
- ALT [3]: 32.8 IU/L
- BUN [3]: 10.8 mg/dL
- CRE [3]: 0.4 mg/dL
- DBIL [3]: 0.008 mg/dL
- GLC [3]: 193.8 mg/dL
- IP [3]: 9.7 mg/dL
- K [3]: 4.9 meq/L
- Na [3]: 137.4 meq/L
- RALB [3]: 3.9 g/dL
- TBIL [3]: 0.038 mg/dL
- TG [3]: 85.8 mg/dL
- TP [3]: 5.4 g/dL
- gamma-GTP [3]: 1 IU/L
- TERMINAL_BW [5]: 214.8 g
- Bas [6]: 0%
- Eos [6]: 1%
- Ht [6]: 40.2%
- Lym [6]: 75.6%
- MCHC [6]: 32.5%
- Ret [6]: 7.8%
- WBC [6]: 95 x10_2/uL
- KIDNEY_L [5]: 1 g
- KIDNEY_R [5]: 1 g
- KIDNEY_TOTAL [5]: 1.9 g
- LIVER [5]: 9.2 g
- ALP [5]: 1045.4 IU/L
- ALT [5]: 28.8 IU/L
- BUN [5]: 10.6 mg/dL
- CRE [5]: 0.4 mg/dL
- DBIL [5]: 0.006 mg/dL
- GLC [5]: 191 mg/dL
- IP [5]: 10.8 mg/dL
- K [5]: 5 meq/L
- Na [5]: 137.9 meq/L
- PL [5]: 135 mg/dL
- RALB [5]: 3.8 g/dL
- TBIL [5]: 0.04 mg/dL
- TG [5]: 41.4 mg/dL
- TP [5]: 5.3 g/dL
- gamma-GTP [5]: 0.6 IU/L
- TERMINAL_BW [7]: 227.3 g
- Bas [8]: 0%
- Eos [8]: 1%
- Ht [8]: 41.2%
- Lym [8]: 76.2%
- MCHC [8]: 32.6%
- Ret [8]: 7.7%
- WBC [8]: 100.4 x10_2/uL
- KIDNEY_L [7]: 1 g
- KIDNEY_R [7]: 1 g
- KIDNEY_TOTAL [7]: 1.9 g
- LIVER [7]: 11 g
- ALP [7]: 1378 IU/L
- ALT [7]: 34.6 IU/L
- BUN [7]: 16.4 mg/dL
- CRE [7]: 0.4 mg/dL
- DBIL [7]: 0.01 mg/dL
- GLC [7]: 192.6 mg/dL
- IP [7]: 7.9 mg/dL
- K [7]: 5.1 meq/L
- Na [7]: 138.1 meq/L
- RALB [7]: 3.9 g/dL
- TBIL [7]: 0.034 mg/dL
- TG [7]: 152.6 mg/dL
- TP [7]: 5.5 g/dL
- gamma-GTP [7]: 1 IU/L
- TERMINAL_BW (30 mg/kg, 3 h, dose level High): 214.6 g
- Bas [9]: 0%
- Eos [9]: 1.2%
- Ht [9]: 39.9%
- Lym [9]: 67.4%
- MCHC [9]: 32.6%
- Ret [9]: 8.7%
- WBC [9]: 79.4 x10_2/uL
- KIDNEY_L (30 mg/kg, 3 h, dose level High): 0.9 g
- KIDNEY_R (30 mg/kg, 3 h, dose level High): 1 g
- KIDNEY_TOTAL (30 mg/kg, 3 h, dose level High): 1.9 g
- LIVER (30 mg/kg, 3 h, dose level High): 9.8 g
- ALP (30 mg/kg, 3 h, dose level High): 1364.6 IU/L
- ALT (30 mg/kg, 3 h, dose level High): 36.4 IU/L
- BUN (30 mg/kg, 3 h, dose level High): 10.6 mg/dL
- CRE (30 mg/kg, 3 h, dose level High): 0.4 mg/dL
- DBIL (30 mg/kg, 3 h, dose level High): 0.01 mg/dL
- GLC (30 mg/kg, 3 h, dose level High): 201.4 mg/dL
- IP (30 mg/kg, 3 h, dose level High): 10.1 mg/dL
- K (30 mg/kg, 3 h, dose level High): 4.4 meq/L
- Na (30 mg/kg, 3 h, dose level High): 138.6 meq/L
- RALB (30 mg/kg, 3 h, dose level High): 4.1 g/dL
- TBIL (30 mg/kg, 3 h, dose level High): 0.048 mg/dL
- TG (30 mg/kg, 3 h, dose level High): 77.8 mg/dL
- TP (30 mg/kg, 3 h, dose level High): 5.7 g/dL
- gamma-GTP (30 mg/kg, 3 h, dose level High): 0.2 IU/L
- TERMINAL_BW (30 mg/kg, 6 h, dose level High): 217.1 g
- Bas [10]: 0%
- Eos [10]: 1.2%
- Ht [10]: 42%
- Lym [10]: 73.2%
- MCHC [10]: 32.3%
- Ret [10]: 6.9%
- WBC [10]: 82.6 x10_2/uL
- KIDNEY_L (30 mg/kg, 6 h, dose level High): 0.9 g
- KIDNEY_R (30 mg/kg, 6 h, dose level High): 1 g
- KIDNEY_TOTAL (30 mg/kg, 6 h, dose level High): 1.9 g
- LIVER (30 mg/kg, 6 h, dose level High): 9.3 g
- ALP (30 mg/kg, 6 h, dose level High): 1193 IU/L
- ALT (30 mg/kg, 6 h, dose level High): 31 IU/L
- BUN (30 mg/kg, 6 h, dose level High): 9.2 mg/dL
- CRE (30 mg/kg, 6 h, dose level High): 0.4 mg/dL
- DBIL (30 mg/kg, 6 h, dose level High): 0.01 mg/dL
- GLC (30 mg/kg, 6 h, dose level High): 198.8 mg/dL
- IP (30 mg/kg, 6 h, dose level High): 9.9 mg/dL
- K (30 mg/kg, 6 h, dose level High): 5.2 meq/L
- Na (30 mg/kg, 6 h, dose level High): 137.7 meq/L
- PL (30 mg/kg, 6 h, dose level High): 134.4 mg/dL
- RALB (30 mg/kg, 6 h, dose level High): 3.8 g/dL
- TBIL (30 mg/kg, 6 h, dose level High): 0.038 mg/dL
- TG (30 mg/kg, 6 h, dose level High): 47.2 mg/dL
- TP (30 mg/kg, 6 h, dose level High): 5.4 g/dL
- gamma-GTP (30 mg/kg, 6 h, dose level High): 1 IU/L
- TERMINAL_BW (30 mg/kg, 9 h, dose level High): 211.4 g
- Bas [11]: 0%
- Eos [11]: 0.8%
- Ht [11]: 40.9%
- Lym [11]: 77.8%
- MCHC [11]: 32.4%
- Ret [11]: 7.1%
- WBC [11]: 90.6 x10_2/uL
- KIDNEY_L (30 mg/kg, 9 h, dose level High): 0.9 g
- KIDNEY_R (30 mg/kg, 9 h, dose level High): 1 g
- KIDNEY_TOTAL (30 mg/kg, 9 h, dose level High): 1.9 g
- LIVER (30 mg/kg, 9 h, dose level High): 9 g
- ALP (30 mg/kg, 9 h, dose level High): 1165 IU/L
- ALT (30 mg/kg, 9 h, dose level High): 28.8 IU/L
- BUN (30 mg/kg, 9 h, dose level High): 8.4 mg/dL
- CRE (30 mg/kg, 9 h, dose level High): 0.4 mg/dL
- DBIL (30 mg/kg, 9 h, dose level High): 0.01 mg/dL
- GLC (30 mg/kg, 9 h, dose level High): 202.8 mg/dL
- IP (30 mg/kg, 9 h, dose level High): 11.1 mg/dL
- K (30 mg/kg, 9 h, dose level High): 5.1 meq/L
- Na (30 mg/kg, 9 h, dose level High): 138.2 meq/L
- PL (30 mg/kg, 9 h, dose level High): 145.2 mg/dL
- RALB (30 mg/kg, 9 h, dose level High): 3.9 g/dL
- TBIL (30 mg/kg, 9 h, dose level High): 0.048 mg/dL
- TG (30 mg/kg, 9 h, dose level High): 53 mg/dL
- TP (30 mg/kg, 9 h, dose level High): 5.4 g/dL
- gamma-GTP (30 mg/kg, 9 h, dose level High): 0.2 IU/L
- TERMINAL_BW [12]: 222.3 g
- Bas [13]: 0%
- Eos [13]: 1%
- Ht [13]: 40.1%
- Lym [13]: 75.4%
- MCHC [13]: 32.6%
- Ret [13]: 7.8%
- WBC [13]: 81 x10_2/uL
- KIDNEY_L [12]: 1 g
- KIDNEY_R [12]: 1 g
- KIDNEY_TOTAL [12]: 2 g
- LIVER [12]: 10.5 g
- ALP [12]: 1406.6 IU/L
- ALT [12]: 31 IU/L
- CRE [12]: 0.4 mg/dL
- DBIL [12]: 0.01 mg/dL
- GLC [12]: 200 mg/dL
- IP [12]: 8 mg/dL
- K [12]: 5.2 meq/L
- Na [12]: 138.1 meq/L
- RALB [12]: 4 g/dL
- TBIL [12]: 0.028 mg/dL
- TG [12]: 100.4 mg/dL
- TP [12]: 5.7 g/dL
- gamma-GTP [12]: 1 IU/L
